For this assay, the system named is PAF lethality in CD1 mice. Description: PAF lethality assay. The format is in vivo. Particulars: Mus musculus; positive control; oral dosing 45 minutes before i.v. PAF; percent mortality compared to controls. On the procedure:
To evaluate the active compounds of the present invention, in vivo, they are tested by the so-called PAF lethality assay procedure: Materials:
Mice: CD1 males, all approximately the same weight (about 26 grams), 12 per group.
Vehicle for oral drug dosing: EES (5% ethanol, 5% emulphor, 90% saline). Stored at room temperature.
Drugs: For routine screening at 50 mg/kg, 20 mg drug is dissolved in 4 ml EES, using sonication in a sonicator bath or grinding in a Ten Broeck (trademark) grinder to dissolve drug if necessary. If solubility is still a problem, the drug is used as a suspension.
Vehicle for i.v. Injection: Saline with 2.5 mg/ml Bovine Serum Albumin (BSA, Sigma #A4378) and 0.05 mg/ml Propranolol (Sigma #P0884). Prepared fresh daily and kept at room temperature.
Platelet Activating Factor (PAF): A […] stock solution is prepared by dissolving 1 mg PAF (Calbiochem #429460) in 0.18 ml ethanol. This stored at -20° C. and is diluted in vehicle (see above) the day of use. The concentration of PAF used is calibrated so that when injected at 0.1 ml/10 grams body weight, it will kill approximately 80% of untreated controls. This is usually about […] (a 1 to 2034 dilution from stock). […]
45 minutes before PAF injection, mice are treated orally with drug using 0.1 ml/10 grams body weight. […] Results are expressed as percent mortality as compared to controls. […]

For the compound `O=C1CCN(c2ccccc2)N1` [Phenidone], the ED50 (as a rule, the midpoint of the dose-response relation) was roughly 25 mg/kg.

(Values after patent US5641789A, “Sulfonamide derivatives of benzenefused hydroxy substituted cycloalkyl and heterocyclic ring compounds” (Pfizer Inc., priority 1995, dated 1997).)
